SMILES strings stand for the structures.

The target in test [1] is T1, Equilibrative nucleoside transporter 1 (Homo sapiens, UniProt Q99808).
T1 sequence (Q99808 whole entry): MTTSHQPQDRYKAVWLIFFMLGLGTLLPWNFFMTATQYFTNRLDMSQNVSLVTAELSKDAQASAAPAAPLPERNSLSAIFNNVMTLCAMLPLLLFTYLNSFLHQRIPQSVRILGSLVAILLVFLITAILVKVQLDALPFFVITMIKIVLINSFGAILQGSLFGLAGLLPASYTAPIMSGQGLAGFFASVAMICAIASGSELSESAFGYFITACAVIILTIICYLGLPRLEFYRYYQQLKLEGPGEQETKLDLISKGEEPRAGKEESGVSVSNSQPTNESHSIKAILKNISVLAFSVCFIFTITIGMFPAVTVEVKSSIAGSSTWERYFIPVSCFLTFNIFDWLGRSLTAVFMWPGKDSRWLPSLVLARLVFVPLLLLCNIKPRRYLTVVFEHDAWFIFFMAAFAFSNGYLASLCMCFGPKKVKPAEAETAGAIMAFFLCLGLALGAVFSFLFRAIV

Test [2] has as its target T2, Cholecystokinin receptor type A (Homo sapiens, UniProt P32238).
T2 sequence (P32238 whole entry): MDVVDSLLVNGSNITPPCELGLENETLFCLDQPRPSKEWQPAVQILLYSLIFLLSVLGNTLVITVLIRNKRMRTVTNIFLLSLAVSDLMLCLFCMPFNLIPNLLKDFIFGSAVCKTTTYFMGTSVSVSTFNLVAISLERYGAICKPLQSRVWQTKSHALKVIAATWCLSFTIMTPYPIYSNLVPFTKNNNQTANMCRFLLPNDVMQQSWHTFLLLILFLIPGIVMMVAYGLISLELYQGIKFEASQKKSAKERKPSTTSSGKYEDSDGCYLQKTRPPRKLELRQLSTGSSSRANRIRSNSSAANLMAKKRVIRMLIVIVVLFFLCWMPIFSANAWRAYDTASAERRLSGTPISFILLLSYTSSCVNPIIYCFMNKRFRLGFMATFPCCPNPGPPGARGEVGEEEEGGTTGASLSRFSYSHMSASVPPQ

Test [3] deals with Delta-type opioid receptor (Homo sapiens, UniProt P41143).
Delta-type opioid receptor, sequence (P41143 whole entry): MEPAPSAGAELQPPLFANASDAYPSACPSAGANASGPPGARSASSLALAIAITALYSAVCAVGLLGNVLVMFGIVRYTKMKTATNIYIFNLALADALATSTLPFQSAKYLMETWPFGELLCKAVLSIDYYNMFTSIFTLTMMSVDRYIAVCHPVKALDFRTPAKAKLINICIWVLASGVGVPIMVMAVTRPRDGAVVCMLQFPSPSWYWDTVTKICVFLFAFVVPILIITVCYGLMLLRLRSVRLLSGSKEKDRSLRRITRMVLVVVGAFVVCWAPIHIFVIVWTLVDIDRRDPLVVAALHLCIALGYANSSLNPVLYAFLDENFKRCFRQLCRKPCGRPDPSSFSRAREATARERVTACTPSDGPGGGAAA
Test [4] addresses T3, Neuropeptide Y receptor type 1 (Homo sapiens, UniProt P25929).
T3 sequence (P25929 whole entry): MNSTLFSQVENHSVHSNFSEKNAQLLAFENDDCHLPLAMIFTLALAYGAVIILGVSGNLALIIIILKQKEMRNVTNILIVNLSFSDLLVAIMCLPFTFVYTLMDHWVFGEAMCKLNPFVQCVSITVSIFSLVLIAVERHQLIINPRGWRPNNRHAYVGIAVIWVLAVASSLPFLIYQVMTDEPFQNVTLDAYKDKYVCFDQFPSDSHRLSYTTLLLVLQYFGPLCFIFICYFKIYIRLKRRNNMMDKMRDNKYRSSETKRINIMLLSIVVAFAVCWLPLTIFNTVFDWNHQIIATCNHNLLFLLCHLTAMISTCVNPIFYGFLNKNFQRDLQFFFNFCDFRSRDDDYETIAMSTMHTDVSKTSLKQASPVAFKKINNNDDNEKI

Test [5] deals with T4, Gastrin/cholecystokinin type B receptor (Homo sapiens, UniProt P32239).
T4 sequence (P32239 whole entry): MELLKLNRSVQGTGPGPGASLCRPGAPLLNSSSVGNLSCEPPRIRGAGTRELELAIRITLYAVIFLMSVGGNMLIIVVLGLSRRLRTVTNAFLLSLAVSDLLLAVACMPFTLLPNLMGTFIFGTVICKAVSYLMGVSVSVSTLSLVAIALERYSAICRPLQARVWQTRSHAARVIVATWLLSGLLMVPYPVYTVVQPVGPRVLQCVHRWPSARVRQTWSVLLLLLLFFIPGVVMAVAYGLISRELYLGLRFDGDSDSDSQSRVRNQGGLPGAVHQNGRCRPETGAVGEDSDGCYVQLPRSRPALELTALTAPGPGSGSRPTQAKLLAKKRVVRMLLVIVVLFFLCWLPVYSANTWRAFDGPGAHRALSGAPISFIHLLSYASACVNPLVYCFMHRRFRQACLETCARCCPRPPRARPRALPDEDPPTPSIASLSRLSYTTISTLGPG

For test [6], the target named is Motilin receptor (Homo sapiens, UniProt O43193).
Motilin receptor, sequence (O43193 whole entry): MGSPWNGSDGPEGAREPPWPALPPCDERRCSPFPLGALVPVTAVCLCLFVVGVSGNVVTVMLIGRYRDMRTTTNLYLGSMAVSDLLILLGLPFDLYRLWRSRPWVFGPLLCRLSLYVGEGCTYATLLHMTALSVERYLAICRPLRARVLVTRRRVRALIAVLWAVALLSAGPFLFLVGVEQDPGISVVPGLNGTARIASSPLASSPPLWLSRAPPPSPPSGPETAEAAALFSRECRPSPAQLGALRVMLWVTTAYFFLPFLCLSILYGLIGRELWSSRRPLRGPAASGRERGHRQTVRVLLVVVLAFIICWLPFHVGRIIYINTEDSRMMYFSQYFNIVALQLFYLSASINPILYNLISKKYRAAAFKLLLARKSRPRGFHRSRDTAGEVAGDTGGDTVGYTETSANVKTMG
Test [7] concerns the target Beta-2 adrenergic receptor (Homo sapiens, UniProt P07550).
Test [8] addresses Sodium-dependent dopamine transporter (Homo sapiens, UniProt Q01959).
In test [9] the target is Kappa-type opioid receptor (Homo sapiens, UniProt P41145).
Kappa-type opioid receptor, sequence (P41145 whole entry): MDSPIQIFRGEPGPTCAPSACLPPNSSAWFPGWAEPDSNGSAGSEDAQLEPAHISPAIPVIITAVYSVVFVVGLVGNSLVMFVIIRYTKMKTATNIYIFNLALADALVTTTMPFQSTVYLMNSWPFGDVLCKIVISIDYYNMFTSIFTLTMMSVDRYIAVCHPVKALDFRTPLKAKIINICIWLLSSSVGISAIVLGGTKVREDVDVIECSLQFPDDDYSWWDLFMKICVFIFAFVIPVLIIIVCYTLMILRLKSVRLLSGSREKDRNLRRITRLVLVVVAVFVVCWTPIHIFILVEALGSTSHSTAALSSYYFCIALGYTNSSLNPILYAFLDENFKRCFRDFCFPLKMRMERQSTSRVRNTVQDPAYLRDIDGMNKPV
For test [10], the target named is T5, Alpha-2A adrenergic receptor (Homo sapiens, UniProt P08913).
T5 sequence (P08913 whole entry): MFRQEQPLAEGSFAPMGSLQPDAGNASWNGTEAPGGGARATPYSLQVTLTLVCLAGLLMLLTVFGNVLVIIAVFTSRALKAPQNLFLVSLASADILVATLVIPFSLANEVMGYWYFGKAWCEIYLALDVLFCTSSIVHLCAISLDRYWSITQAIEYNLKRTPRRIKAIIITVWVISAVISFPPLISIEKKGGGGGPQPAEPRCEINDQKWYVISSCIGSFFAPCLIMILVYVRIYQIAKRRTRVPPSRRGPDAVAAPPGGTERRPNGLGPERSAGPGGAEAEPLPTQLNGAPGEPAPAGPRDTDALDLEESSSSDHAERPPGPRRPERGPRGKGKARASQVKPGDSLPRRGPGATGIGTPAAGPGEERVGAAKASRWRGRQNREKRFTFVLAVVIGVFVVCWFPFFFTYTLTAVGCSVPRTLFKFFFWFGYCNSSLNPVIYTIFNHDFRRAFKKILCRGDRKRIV
The format is functional, cell-based.

Test [11] concerns the target 5-hydroxytryptamine receptor 2B (Homo sapiens, UniProt P41595). The format is functional, cell-based.
Note: assay procedure not described here.

Sodium-dependent dopamine transporter, sequence (Q01959 whole entry): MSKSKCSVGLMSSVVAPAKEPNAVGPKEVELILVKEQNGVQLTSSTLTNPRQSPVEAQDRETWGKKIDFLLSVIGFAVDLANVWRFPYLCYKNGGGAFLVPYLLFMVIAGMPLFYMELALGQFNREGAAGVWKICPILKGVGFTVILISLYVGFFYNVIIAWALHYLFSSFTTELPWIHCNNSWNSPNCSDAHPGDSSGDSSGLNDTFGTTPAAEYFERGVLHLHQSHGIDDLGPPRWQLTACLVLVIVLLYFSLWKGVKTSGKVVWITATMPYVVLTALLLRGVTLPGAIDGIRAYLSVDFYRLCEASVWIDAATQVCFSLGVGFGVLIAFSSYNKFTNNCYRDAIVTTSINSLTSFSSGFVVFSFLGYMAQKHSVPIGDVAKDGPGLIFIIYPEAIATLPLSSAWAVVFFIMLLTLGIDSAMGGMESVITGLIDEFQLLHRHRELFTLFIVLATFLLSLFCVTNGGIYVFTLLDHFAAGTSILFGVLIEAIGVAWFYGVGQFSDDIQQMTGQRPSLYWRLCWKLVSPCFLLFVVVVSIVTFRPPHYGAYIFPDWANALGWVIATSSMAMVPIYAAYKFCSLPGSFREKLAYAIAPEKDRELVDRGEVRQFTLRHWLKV
5-hydroxytryptamine receptor 2B, sequence (P41595 whole entry): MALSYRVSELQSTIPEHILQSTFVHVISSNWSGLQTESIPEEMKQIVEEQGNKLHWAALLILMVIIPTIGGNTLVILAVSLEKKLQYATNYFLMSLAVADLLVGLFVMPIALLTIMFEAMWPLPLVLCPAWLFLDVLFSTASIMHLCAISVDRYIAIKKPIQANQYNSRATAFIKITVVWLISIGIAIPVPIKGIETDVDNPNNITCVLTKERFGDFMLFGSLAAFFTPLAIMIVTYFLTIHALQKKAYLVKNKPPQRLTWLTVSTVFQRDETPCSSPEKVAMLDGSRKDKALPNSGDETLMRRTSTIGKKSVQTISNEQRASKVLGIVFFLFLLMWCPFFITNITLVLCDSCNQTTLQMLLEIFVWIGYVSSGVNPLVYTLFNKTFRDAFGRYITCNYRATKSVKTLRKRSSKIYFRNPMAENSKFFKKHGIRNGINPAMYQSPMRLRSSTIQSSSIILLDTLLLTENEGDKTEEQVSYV
Beta-2 adrenergic receptor, sequence (P07550 whole entry): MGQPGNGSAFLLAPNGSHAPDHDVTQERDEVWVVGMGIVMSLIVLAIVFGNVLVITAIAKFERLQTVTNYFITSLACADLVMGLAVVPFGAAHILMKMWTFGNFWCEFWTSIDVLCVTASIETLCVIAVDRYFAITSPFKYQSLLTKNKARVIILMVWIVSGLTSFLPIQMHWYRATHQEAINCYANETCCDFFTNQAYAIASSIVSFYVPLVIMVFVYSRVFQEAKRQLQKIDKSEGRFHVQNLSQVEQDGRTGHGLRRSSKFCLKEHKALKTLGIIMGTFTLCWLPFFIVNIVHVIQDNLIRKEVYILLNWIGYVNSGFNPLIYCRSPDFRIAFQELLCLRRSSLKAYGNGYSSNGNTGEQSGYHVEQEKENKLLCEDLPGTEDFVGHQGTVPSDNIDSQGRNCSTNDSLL

Take `O=C(O)CCNC(=O)c1ccc(/N=N/c2ccc(O)c(C(=O)O)c2)cc1` [BALSALAZIDE]: the half-maximal activity concentration (AC50) (usually the concentration at which the activity in the assay is half-maximal) in test [1] was 30 µM; in [2] it was above 30 µM; in test [3] it was above 30 µM; in test [4], above 30 µM; in test [5], above 30 µM; in test [6], above 30 µM. In addition, the AC50 in test [7], in test [8], in test [9], in [10] and in test [11] was above 30 µM throughout.

Regarding `Clc1ccc(CCC(Cn2ccnc2)Sc2c(Cl)cccc2Cl)cc1` (configuration not stated) [BUTOCONAZOLE], the AC50 in test [1], in test [2], in test [3], in [4], in [5] and in test [6] was above 30 µM throughout. Besides, the AC50 is above 30 µM in test [7]; 20 µM in test [8]; 1.8 µM in test [9]; above 30 µM in [10]; above 30 µM in [11].

On to `CC(CN(C)C)C(C)(O)Cc1ccc(Cl)cc1` (configuration not stated) [CLOBUTINOL], for which the AC50 in test [1] was above 30 µM; in test [2] it was above 30 µM; in [3], above 30 µM; in [4] it was above 30 µM; in [5] it was above 30 µM; in test [6], above 10 µM. For the same molecule, the AC50 in test [7] was above 30 µM; in test [8], above 30 µM; in [9], above 10 µM; in test [10], above 10 µM; in test [11], above 10 µM.

For `CCOC(=O)C(C)(C)Oc1ccc(Cl)cc1` [CLOFIBRATE], the AC50 in test [1] is above 30 µM; in test [2], above 30 µM; in test [3], above 30 µM; in [4], above 30 µM; in [5] it was above 30 µM; in [6], above 10 µM. Also, the AC50 in test [7] is above 10 µM; in [8], above 30 µM; in test [9], above 10 µM; in test [10], above 10 µM; in test [11], above 10 µM.

In the case of `C[C@@H]1C[C@H]2[C@@H]3CCC4=CC(=O)C=C[C@]4(C)[C@@]3(F)[C@@H](O)C[C@]2(C)[C@@]1(O)C(=O)CO` [DEXAMETHASONE], the AC50 in test [1], in test [2], in [3], in test [4], in test [5] and in test [6] was above 30 µM each time. Moreover, the AC50 is above 30 µM in test [7]; above 30 µM in [8]; above 10 µM in [9]; above 10 µM in [10]; above 10 µM in test [11].

Consider `Oc1ccc(CCNCCCCCCNCCc2ccccc2)cc1O` [DOPEXAMINE], for which the AC50 in test [1], in [2], in test [3], in test [4], in test [5] and in test [6] was above 30 µM in each case. The AC50 was 3.8 µM in [7]; 0.5 µM in test [8]; 4.3 µM in test [9]; above 30 µM in test [10]; above 30 µM in test [11].

In the case of `CCN1CC(CCN2CCOCC2)C(c2ccccc2)(c2ccccc2)C1=O` (configuration not stated) [DOXAPRAM], the AC50 in test [1], in test [2], in test [3], in test [4], in test [5] and in test [6] was above 30 µM each time. For the same molecule, the AC50 in test [7], in test [8], in test [9], in [10] and in test [11] was above 30 µM each time.

As to `CCCCOc1ccc(C(=O)CCN2CCCCC2)cc1` [DYCLONINE], the AC50 in test [1] is above 30 µM; in test [2], above 30 µM; in test [3], above 10 µM; in test [4] it was above 30 µM; in test [5] it was above 30 µM; in test [6], above 10 µM. Further, the AC50 in [7] was above 10 µM; in test [8], 4.82 µM; in test [9] it was above 10 µM; in test [10], above 10 µM; in [11] it was above 10 µM.

In the case of `CCc1cc2c(s1)-n1c(C)nnc1CN=C2c1ccccc1Cl` [ETIZOLAM], the AC50 in test [1], in [2], in [3], in test [4], in [5] and in test [6] was above 30 µM each time. Moreover, the AC50 in [7] is above 30 µM; in test [8], above 30 µM; in test [9], 2.5 µM; in test [10], above 30 µM; in [11], above 30 µM.

`CCOC(=O)c1ncn2c1CN(C)C(=O)c1cc(F)ccc1-2` [FLUMAZENIL]: the AC50 in [1], in test [2], in test [3], in [4], in test [5] and in test [6] was above 30 µM throughout. Also, the AC50 in [7], in [8], in test [9], in test [10] and in [11] was above 30 µM in each case.

Take `CC/C=C\C/C=C\C/C=C\C/C=C\C/C=C\CCCC(=O)OCC` [ICOSAPENT ETHYL]: the AC50 in test [1], in test [2], in test [3], in test [4], in [5] and in test [6] was above 30 µM throughout. Also, the AC50 in test [7], in test [8], in test [9], in test [10] and in test [11] was above 30 µM in each case.

For the molecule `NNC(=O)c1ccncc1` [ISONIAZID], the concentration at half-maximal activity (AC50) in test [1], in [2], in test [3], in test [4], in test [5] and in test [6] was above 30 µM in each case. The AC50 in [7], in test [8], in test [9], in test [10] and in test [11] was above 30 µM throughout.

The values are drawn from ChEMBL document CHEMBL5291721, “A preclinical secondary pharmacology resource illuminates target-adverse drug reaction associations of marketed drugs” (Nat Commun, 2023).
